What is called IC50 is the concentration that gives 50% inhibition.

Data on six compounds can be found in patent publication US5329010A, “Quinone derivatives” (Eisai Co., Ltd., priority 1991, dated 1994).

Data set [1] has as its system production of leukotriene B4 (LTB4), rat abdominal glycogenic infiltration cell. The data set is described as follows: Inhibitory activity against production of leukotriene B4 (LTB4) from rat abdominal infiltration cell. In kind it is cell-based, rat (Fisher male). Conditions: 10 min, cells 5×10^6/ml, calcium ionophore A-23187 2 μg/ml, 37° C., enzyme immunoassay. Here is the method:
(§1) Inhibitory activity against the production of leukotriene B4 (LTB4) and thromboxane B2 (TxB2 from rat abdominal infiltration cell
(§2) 10 ml of a 6% (w/v) solution of glycogen (Type II from Oyster, Sigma) in physiological saline was injected into the abdominal cavity of a Fisher male rat having a weight of 150 to 200 g. After 20 to 24 hours, the abdominal exudation cells were recovered therefrom, washed and suspended in the Hanks' balanced salt solution (HBSS) in a concentration of 5×10^6 /ml. This suspension was poured onto a 96-well culture plate (Costar: registered trademark) in which a test drug diluted to a predetermined concentration had been put in an amount of 10 μl/well, in an amount of 100 μl/well. The resulting plate was incubated at 37° C. for 5 minutes. Calcium ionophore A-23187 [Calbiochem (registered trademark)] was added in a final concentration of 2 μg/ml. After the reaction at 37° C. for additional 10 minutes, the plate was put on ice and a BW755C solution was added in a final concentration of 100 μM. The resulting plate was centrifuged at 15000 rpm for 10 minutes. The supernatant was recovered and the amounts of LTB4 and TxB2 in the supernatant were determined by enzyme immunoassay with an EIA kit mfd. by Cayman.

Data set [2] relates to production of thromboxane B2 (TxB2), rat abdominal glycogenic infiltration cell. The data set is described as follows: Inhibitory activity against production of thromboxane B2 (TxB2) from rat abdominal infiltration cell. In kind it is cell-based, rat (Fisher male). Conditions: 10 min, cells 5×10^6/ml, calcium ionophore A-23187 2 μg/ml, 37° C., enzyme immunoassay. Here is the method: as §1, §2
(Thromboxane A2 is very unstable to treat and naturally turns to thromboxane B2 in 10-20 seconds in the human body. Therefore, thromboxane B2 was used in the tests above).

A short description of data set [3]: Repetitive Oral Administration Test for 4 Weeks on Rats. The data set is classed as in vivo, rat (female Slc:SD). To be noted: once a day, each of 30 and 100 mg/kg. The method, then:
Repetitive Oral Administration Test for 4 Weeks on Rats
30 and 100 mg/kg of the compound obtained in the Example 3 was orally administered to female Slc:SD rats aged 7 weeks (each group consisting of 5 animals) for 4 weeks. This compound was suspended in a 0.5 wt. % aqueous solution of methylcellulose and administered once a day.
During the administration period, the general conditions of the animals were observed and the body weight and feed intake were measured. After the completion of the final administration, hematological examination, hemo-biochemical examination, urinalysis and autopsy were effected and organs were weighed. Further, livers and kidneys were patho-histologicallyexamined under an optical microscope.

The nature of data set [4]: Repetitive Oral Administration Test for 4 Weeks on Dogs. The arrangement: species or system dog (female beagle). To be noted: in vivo, concluded after rat and dog tests, read-out: toxicologically non-influential dose. Here is the method:
Repetitive Oral Administration Test for 4 Weeks on Dogs
30 and 100 mg/kg of the compound obtained in the Example 3 was orally administered to female beagles aged 8 months (each group consisting of 2 animals) for 4 weeks. This compound was triturated with lactose and administered once a day.
During the administration period, the general conditions of the animals were observed and the body weight and feed intake were measured. After the completion of the first, seventh and final administrations, hemo-biochemical examination was effected. After the completion of the seventh and final administrations, further, hematological examination and urinalysis were effected. Furthermore, autopsy was effected and organs were weighed after the final administration. Livers, kidneys and adrenal bodies were patho-histologically examined under an optical microscope.

Turning to `CCCCCCCOc1c(C)c(OC)c(C)c(/C=C(\CCCCCc2cccnc2)C(=O)OCC)c1OC` [Ex. 9], the results for the IC50 in data set [1] and in data set [2] were 3160 nM and 160 nM, respectively.
Turning to `COc1c(C)c(O)c(/C=C(\CCCCCc2cccnc2)C(=O)O)c(C)c1O` [Ex. 4, (E)-3-(2,5-Dihydroxy-4-methoxy-3,6-dimethylphenyl)-2-[5-(3-pyridyl)pentyl]-2-propenoic acid], the IC50 in data set [1] turned out to be 7860 nM; in data set [2] it was 460 nM.
Take `CCOC(=O)/C(=C/c1c(C)c(OC)c(OC)c(C)c1OC)CCCc1cccnc1` [Ex. 10]: the IC50 in data set [1] was 320 nM; in data set [2] it was 420 nM.
For `CCCCOc1c(C)c(OC)c(C)c(/C=C(\CCCCCc2cccnc2)C(=O)OCC)c1OC` [Ex. 7], in that order: 1390 nM and 90 nM.
Regarding `CCCCCCCOc1c(C)c(OC)c(/C=C(\CCCCCc2cccnc2)C(=O)OCC)c(C)c1OC` [Ex. 5], the IC50 in data set [1] came to 3160 nM; in data set [2], 480 nM.
Regarding `COC1=C(C)C(=O)C(/C=C(\CCCCCc2cccnc2)C(=O)O)=C(C)C1=O` [Ex. 3, (E)-3-(2-Methoxy-3,6-dimethyl-1,4-benzoquinon-5-yl)-2-[5-(3-pyridyl)pentyl]-2-propenoic acid], the IC50 was determined as 1160 nM in data set [1] and 50 nM in data set [2]. The “change in general conditions, body weight, feed intake, hematology, hemo-biochemistry, urinalysis, autopsy, organ weight, histology” value in data set [3] is reported as “No change was observed”. Further, in data set [4], the NOAEL at 672 h came out at 100 mg/kg.
